Laboratory results taken from article PMC6067974 (Neuropharmacology, 2018).

What was measured:
mice [1] = assay: Indirect calorimetry; conditions: BAY60-6583 1 mg/kg, i.p.; C57BL/6J mice
mouse A2BAR [2] = assay: Cell-based assay at mouse A2BAR; conditions: EC50 2.8 nM vs Ki 136 nM
mouse A2BAR [3] = conditions: ref van der Hoeven et al., 2011, cited from earlier work
A1AR = conditions: read-out: rat Ki, A1AR, ref Alnouri et al., 2015; cited from earlier work
[4] = system: hypothalamic neurons (Fos); assay: Drug-induced neuronal activation; format: in vivo, mouse; conditions: BAY60-6583 0.004 mg/kg i.c.v.; Adora1−/−;Adora3−/− mice; 1 h; vs vehicle
[5] = molecular target: serotonin transporter (SERT) (Homo sapiens, UniProt P31645); assay: PDSP off-target radioligand binding, serotonin transporter
serotonin transporter (SERT), sequence (P31645 whole entry): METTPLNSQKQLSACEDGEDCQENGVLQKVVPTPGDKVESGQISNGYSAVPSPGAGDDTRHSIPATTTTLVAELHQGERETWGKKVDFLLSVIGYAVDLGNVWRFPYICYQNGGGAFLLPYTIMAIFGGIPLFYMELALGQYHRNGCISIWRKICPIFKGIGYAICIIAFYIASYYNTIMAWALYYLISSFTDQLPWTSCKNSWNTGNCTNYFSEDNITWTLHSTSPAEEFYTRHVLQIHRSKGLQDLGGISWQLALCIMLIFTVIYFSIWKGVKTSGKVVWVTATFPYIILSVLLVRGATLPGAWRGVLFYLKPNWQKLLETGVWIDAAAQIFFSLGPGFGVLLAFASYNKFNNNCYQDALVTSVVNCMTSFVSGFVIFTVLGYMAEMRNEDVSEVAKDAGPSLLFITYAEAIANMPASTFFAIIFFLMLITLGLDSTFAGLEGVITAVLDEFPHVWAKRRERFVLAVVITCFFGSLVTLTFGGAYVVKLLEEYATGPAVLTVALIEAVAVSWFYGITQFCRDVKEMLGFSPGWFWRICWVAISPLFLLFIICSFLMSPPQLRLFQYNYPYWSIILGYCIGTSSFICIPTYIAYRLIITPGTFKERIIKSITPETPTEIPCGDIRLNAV

mouse A1AR = molecular target: T1, mouse A1AR (Mus musculus, UniProt Q60612); assay: Radioligand binding, mouse A1AR; conditions: ratio of rat Ki to mouse Ki at A1AR
T1 sequence (Q60612 1-326): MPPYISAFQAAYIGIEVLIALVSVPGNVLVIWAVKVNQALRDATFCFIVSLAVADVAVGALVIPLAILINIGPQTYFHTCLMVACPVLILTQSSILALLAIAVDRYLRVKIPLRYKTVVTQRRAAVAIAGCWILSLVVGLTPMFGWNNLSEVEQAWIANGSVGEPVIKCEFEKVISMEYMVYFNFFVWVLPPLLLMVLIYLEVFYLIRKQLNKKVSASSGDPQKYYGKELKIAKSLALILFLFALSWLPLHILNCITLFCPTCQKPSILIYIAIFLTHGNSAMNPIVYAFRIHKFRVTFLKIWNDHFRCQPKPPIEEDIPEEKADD

mice [6] = assay: Telemetric monitoring of Tb and physical activity in mice; format: in vivo, mouse
mouse A2AAR = mouse A2AAR (Mus musculus, UniProt Q60613); conditions: read-out: mouse Ki, A2AAR, ref Alnouri et al., 2015; cited from earlier work
mouse A2AAR, sequence (Q60613 whole entry): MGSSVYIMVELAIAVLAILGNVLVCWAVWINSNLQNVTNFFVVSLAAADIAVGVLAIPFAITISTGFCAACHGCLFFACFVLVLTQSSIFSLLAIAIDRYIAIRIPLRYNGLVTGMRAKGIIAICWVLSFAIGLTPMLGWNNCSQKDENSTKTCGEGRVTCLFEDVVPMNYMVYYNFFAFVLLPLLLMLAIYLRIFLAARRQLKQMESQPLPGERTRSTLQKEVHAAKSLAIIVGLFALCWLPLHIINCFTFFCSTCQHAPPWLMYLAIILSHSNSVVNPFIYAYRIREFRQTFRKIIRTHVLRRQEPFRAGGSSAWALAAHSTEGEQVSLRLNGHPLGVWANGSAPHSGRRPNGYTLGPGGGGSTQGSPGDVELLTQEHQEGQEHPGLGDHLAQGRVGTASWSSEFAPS

[7] = BAY60-6583 0.5–2 mg/kg, i.p., C57BL/6J mice

## N#Cc1c(N)nc(SCC(N)=O)c(C#N)c1-c1ccc(OCC2CC2)cc1 [BAY60-6583, 2-[6-amino-3,5-dicyano-4-[4-(cyclopropylmethoxy)phenyl]pyridin-2-ylsulfanyl]acetamide]
Mice [1]
  food intake: lowered
  metabolic rate (total energy expenditure): lowered metabolic rate
  respiratory exchange ratio: lowered
Mouse A2BAR [2]
  EC50 better than the binding affinity at A2BAR: 50 fold
Mouse A2BAR [3]; not mouse A1AR, A2AAR, or A3AR
  adenosine receptor activation selectivity: activate only mouse A2BAR
Mouse A2BAR [3]; read-out: EC50 at mouse A2BAR, cell-based assay
  EC50: 0.0028 µM
A1AR
  Ki: 0.514 µM
[4]
  Fos immunoreactivity, dorsomedial hypothalamus (DMH): not significantly different
  Fos immunoreactivity, ventromedial hypothalamus (VMH): not significantly different
  Fos immunostaining, paraventricular hypothalamus (PVH): increased Fos immunostaining
  Fos immunostaining, preoptic area (POA): increased Fos immunostaining
[5]
  Ki: 5.6 µM
Mouse A1AR
  A1AR rat: mouse ratio: 1.5
Mice [6]; BAY60-6583 0.004 mg/kg i.c.v., Adora1−/−;Adora3−/− mice
  Tb response (hypothermia): more modest effects
Mice [6]; BAY60-6583 0.004 mg/kg, i.c.v., C57BL/6J (WT) mice
  Tb response (hypothermia): caused hypothermia
Mice [6]; BAY60-6583 0.04 mg/kg i.c.v., Adora1−/−;Adora3−/− mice
  Tb response (hypothermia): profound, prolonged hypothermia
Mice [6]; BAY60-6583 1 mg/kg, i.p., Adora2b−/− mice, 1 mg/kg
  Tb response (hypothermia): completely abolished
Mice [6]; BAY60-6583 1 mg/kg, i.p., KitW−sh/W−sh mice
  Tb response (hypothermia): intact
Mice [6]; [7]
  Tb response (hypothermia): dose-dependent hypothermia
  physical activity: hypoactivity
Mice [6]; BAY60-6583, i.c.v. vs i.p.
  i.c.v. dose as fraction of a similarly hypothermic i.p. dose: 1/150
Mice [6]; BAY60-6583 i.p., Adora1−/−;Adora3−/− mice, not shown
  Tb response (hypothermia): intact
Mouse A2AAR
  Ki: > 10 µM
